Assay results as given in patent US20240390438A1, “PROBIOTICS SEPARATED FROM RABBIT FECES AND FOOD CONTAINING PROBIOTICS” (AGENT Innovation Co., Ltd., priority 2021, published 2024).
≈ marks a conversion by molar mass, not a printed value. Where two headings read alike, the source gives them in different places.

Experiments:
Colony LP19 = test: Antibiotic susceptibility test; assay type: cell-based, Lactiplantibacillus Plantarum; conditions: for MIC: Lactiplantibacillus plantarum, LP19, 24 h; for Minimum inhibitory concentration of the antibiotic to LP19: 96-well, 37 C 24 h, OD600
From the text: (§1) To test bacterial susceptibility to antibiotics, such as Aminoglycosides antibiotics, Sulfonamide antibiotics, Quinolone antibiotics, Ampicillin, Cefotaxime, Chloramphenicol, Erythromycin, Rifampicin and Tetracycline, the experimental protocol were as follow. Further, the Quinolone antibiotics comprise Ciprofloxacin, the Aminoglycosides antibiotics comprise Kanamycin and […], and the Sulfonamide antibiotics comprise Sulfamethoxazole. […] The initial absorbance at 600 nm (OD600) of each well was recorded. Then, the 96-well plates were placed at 37° C. and cultured for 24 hours. Next, the OD600 of each well was measured again to determine minimum inhibitory concentration.

Colony LP1 = test: Antibiotic susceptibility test; assay type: cell-based, Lactiplantibacillus Plantarum; conditions: for MIC: Lactiplantibacillus plantarum, LP1, 24 h; for Minimum inhibitory concentration of the antibiotic to LP1: 96-well, 37 C 24 h, OD600
From the text: as §1

Colony LP2 = test: Antibiotic susceptibility test; assay type: cell-based, Lactiplantibacillus Plantarum; conditions: for MIC: Lactiplantibacillus plantarum, LP2, 24 h, read-out: Minimum inhibitory concentration of the antibiotic to LP2
From the text: as §1

Colony LP5 = test: Antibiotic susceptibility test; assay type: cell-based, Lactiplantibacillus Plantarum; conditions: for MIC: Lactiplantibacillus plantarum, LP5, 24 h; for Minimum inhibitory concentration of the antibiotic to LP5: 96-well, 37 C 24 h, OD600
From the text: as §1

Colony PTA22 = test: Antibiotic susceptibility test; assay type: cell-based, Lactiplantibacillus Plantarum; conditions: for MIC: Lactiplantibacillus plantarum, PTA22, 24 h; for Minimum inhibitory concentration of the antibiotic to PTA22: 96-well, 37 C 24 h, OD600
From the text: as §1

L. pl 24-2L = conditions: from Georgieva et al., 2015; cited from earlier work
L. pl 24-5D = conditions: from Georgieva et al., 2015; cited from earlier work
L. plantarum 299 = conditions: from Klarin et al., 2019; cited from earlier work
L. plantarum 299v = conditions: from Klarin et al., 2019; cited from earlier work
Bacillus cereus = test: Agar diffusion method-2 (cell-free solution); assay type: cell-based; conditions: colonies as cell-free solution in holes of TSA; ddH2O control 8
Procedure: (§2) Firstly, the CFSs (containing metabolites) were prepared. Besides, when probiotics break down fiber and convert the fiber into metabolites, the metabolites are postbiotics.
(§3) Next, the pathogenic bacteria described above were also cultured with 37° C. until the concentration thereof reached 1×10^8 CFU/mL, respectively. 100 μL bacterial solutions of the pathogenic bacteria described above were evenly plated on Tryptone Soy Agar (TSA) and stay for 10 minutes. Then, tips were used to form several holes in the TSA. Subsequently, 100 μL bacterial solutions of the colonies described above were added into the holes and then cultured at 37° C. for 12 hours.
(§4) This experiment is designed that the CFSs in the holes prevent the pathogenic bacteria on the plates from growing. Therefore, the larger zone indicates the better antibacterial effect.

Escherichia coli (ETEC) = test: Agar diffusion method-2 (cell-free solution); assay type: cell-based; conditions: colonies as cell-free solution in holes of TSA; ddH2O control 8
Procedure: as §2, §3, §4

Klebsiella pneumoniae = test: Agar diffusion method-2 (cell-free solution); assay type: cell-based; conditions: colonies as cell-free solution in holes of TSA; ddH2O control 8
Procedure: as §2, §3, §4

Pseudomonas aeruginosa = test: Agar diffusion method-2 (cell-free solution); assay type: cell-based; conditions: colonies as cell-free solution in holes of TSA; ddH2O control 8
Procedure: as §2, §3, §4

Salmonella enterica = test: Agar diffusion method-2 (cell-free solution); assay type: cell-based; conditions: colonies as cell-free solution in holes of TSA; ddH2O control 8
Procedure: as §2, §3, §4

Shigella sonnei [1] = test: Agar diffusion method-2 (cell-free solution); assay type: cell-based; conditions: colonies as cell-free solution in holes of TSA; ddH2O control 8
Procedure: as §2, §3, §4

Streptococcus pneumoniae = test: Agar diffusion method-2 (cell-free solution); assay type: cell-based; conditions: colonies as cell-free solution in holes of TSA; ddH2O control 8
Procedure: as §2, §3, §4

Shigella sonnei [2] = test: Minimum inhibitory concentration and minimum bacterial concentration; assay type: cell-based; conditions: antibiotics
Procedure: (§5) Minimum inhibitory concentration (MIC) refers to the minimum concentration at which the development of bacteria can be blocked and antibacterial resistance can be observed after cultured. The lower MIC means the better effect on bacteria.
(§6) The supernatants of the cultured colonies described above were collected, as cell-free solutions (CFSs), by centrifuge at 5000 rpm after cultured the colonies in a nutrient broth and shaking at 37° C. for 48 hours.
(§7) Next, 100 μL each of the CFSs and 100 μL bacterial solutions of the pathogenic bacteria were respectively added to each well of a 96-well plate. Thus, the total volume in each well was 200 μL. The tested pathogenic bacteria included Salmonella enterica, Shigella sonnei, Klebsiella pneumoniae, Streptococcus pneumoniae, Bacillus cereus, Staphylococcus aureus, Pseudomonas aeruginosa, and Escherichia coli.
(§8) As well, 100 μL each of the nutrient broth containing Ampicillin or Kanamycin and 100 μL bacterial solutions of the pathogenic bacteria were respectively added to each well of a 96-well plate. Thus, the total volume in each well was 200 μL.
(§9) Then, initial values of OD600 in each well were recorded. Subsequently, the 96-well plates were cultured at 37° C. for 24 hours, and the OD600 values thereof were re-recorded for determining the MICs of each colony described above.
(§10) Finally, 100 μL CFSs of the next three concentrations […] MIC were taken to be plated on nutrient agar and then cultured at 37° C. for 48-72 hours. The concentrations of the CFSs that no colonies grown on nutrient agar were determined to be the minimum bacterial concentration (MBCs).

Staphylococcus aureus = test: as above; assay type: cell-based; conditions: antibiotics
Procedure: as §5, §6, §7, §8, §9, §10

species L. plantarum = conditions: EFSA (2005); cited from earlier work
[3] = read-out: Minimum inhibitory concentration of the antibiotic to LP19, 96-well, 37 C 24 h, OD600
[4] = read-out: Minimum inhibitory concentration of the antibiotic to LP1, 96-well, 37 C 24 h, OD600
[5] = read-out: Minimum inhibitory concentration of the antibiotic to LP5, 96-well, 37 C 24 h, OD600
[6] = read-out: Minimum inhibitory concentration of the antibiotic to PTA22, 96-well, 37 C 24 h, OD600
[7] = plated on nutrient agar 48-72 h

SMILES	MIC (Colony LP19; [3])	MIC (Colony LP1; [4])	MIC (Colony LP2; 96-well, 37 C 24 h, OD600)	MIC (Colony LP5; [5])	MIC (Colony PTA22; [6])	Minimum inhibitory concentration of the antibiotic to LP19 (Colony LP19)	Minimum inhibitory concentration of the antibiotic to LP1 (Colony LP1)	Minimum inhibitory concentration of the antibiotic to LP2 (Colony LP2; 96-well, 37 C 24 h, OD600)	Minimum inhibitory concentration of the antibiotic to LP5 (Colony LP5)	Minimum inhibitory concentration of the antibiotic to PTA22 (Colony PTA22)	Minimum inhibitory concentration of the antibiotic to L. pl 24-2L (L. pl 24-2L)	Minimum inhibitory concentration of the antibiotic to L. pl 24-5D (L. pl 24-5D)	Minimum inhibitory concentration of the antibiotic to L. plantarum 299 (L. plantarum 299)	Minimum inhibitory concentration of the antibiotic to L. plantarum 299v (L. plantarum 299v)	EFSA, MIC breakpoints species L. plantarum (species L. plantarum)	also measured
O=C(O)c1cn(C2CC2)c2cc(N3CCNCC3)c(F)cc2c1=O [Ciprofloxacin]	> 128 µg/mL	> 128 µg/mL	> 128 µg/mL	> 128 µg/mL	> 128 µg/mL	–	–	–	–	–	–	–	–	–	–	–
CN[C@H](CC(C)C)C(=O)N[C@H]1C(=O)N[C@@H](CC(N)=O)C(=O)N[C@H]2C(=O)N[C@H]3C(=O)N[C@H](C(=O)N[C@H](C(=O)O)c4cc(O)cc(O)c4-c4cc3ccc4O)[C@H](O)c3ccc(c(Cl)c3)Oc3cc2cc(c3O[C@@H]2O[C@H](CO)[C@@H](O)[C@H](O)[C@H]2O[C@H]2C[C@](C)(N)[C@H](O)[C@H](C)O2)Oc2ccc(cc2Cl)[C@H]1O [Vancomycin]	–	–	–	–	–	>256 µg/mL	>256 µg/mL	>256 µg/mL	>256 µg/mL	>256 µg/mL	>256 µg/mL	>256 µg/mL	>256 µg/mL	>256 µg/mL	–	MIC (Colony LP19; read-out: Minimum inhibitory concentration of the antibiotic to LP19): > 256 µg/mL; MIC (Colony LP1; read-out: Minimum inhibitory concentration of the antibiotic to LP1): > 256 µg/mL; MIC (Colony LP2): > 256 µg/mL; MIC (Colony LP5; read-out: Minimum inhibitory concentration of the antibiotic to LP5): > 256 µg/mL; MIC (Colony PTA22; read-out: Minimum inhibitory concentration of the antibiotic to PTA22): > 256 µg/mL
Cc1cc(NS(=O)(=O)c2ccc(N)cc2)no1 [Sulfamethoxazole]	> 256 µg/mL	> 256 µg/mL	> 256 µg/mL	> 256 µg/mL	> 256 µg/mL	>256 µg/mL	>256 µg/mL	>256 µg/mL	>256 µg/mL	>256 µg/mL	–	–	–	–	–	–
CC1(C)S[C@@H]2[C@H](NC(=O)[C@H](N)c3ccccc3)C(=O)N2[C@H]1C(=O)O [Ampicillin]	0.25 µg/mL (≈ 0.715 µM)	0.125 µg/mL (≈ 0.358 µM)	0.25 µg/mL (≈ 0.715 µM)	0.25 µg/mL (≈ 0.715 µM)	0.5 µg/mL (≈ 1.43 µM)	–	–	–	–	–	0.38 µg/mL	1 µg/mL	0.094 µg/mL	0.094 µg/mL	4 µg/mL	Inhibitory zone, Bacillus Cereus (Bacillus cereus): 8 mm; Inhibitory zone, Escherichia coli (ETEC) (Escherichia coli (ETEC)): 8 mm; Inhibitory zone, Klebsiella Pneumoniae (Klebsiella pneumoniae): 8 mm; Inhibitory zone, Pseudomonas Aeruginosa (Pseudomonas aeruginosa): 8 mm; Inhibitory zone, Salmonella Enterica (Salmonella enterica): 8 mm; Inhibitory zone, Shigella Sonnei (Shigella sonnei [1]): 12 mm; Inhibitory zone, Streptococcus Pneumoniae (Streptococcus pneumoniae): 8 mm; MIC (Shigella sonnei [2]; 37 C 24 h, OD600): 8 µg/mL (≈ 22.9 µM); MBC (Shigella sonnei [2]; [7]): 16 µg/mL (≈ 45.8 µM); MIC (Staphylococcus aureus; 37 C 24 h, OD600): 0.5 µg/mL (≈ 1.43 µM); MBC (Staphylococcus aureus; [7]): 1 µg/mL (≈ 2.86 µM)
CC[C@H]1OC(=O)[C@H](C)[C@@H](O[C@H]2C[C@@](C)(OC)[C@@H](O)[C@H](C)O2)[C@H](C)[C@@H](O[C@@H]2O[C@H](C)C[C@H](N(C)C)[C@H]2O)[C@](C)(O)C[C@@H](C)C(=O)[C@H](C)[C@@H](O)[C@]1(C)O [Erythromycin]	2 µg/mL (≈ 2.73 µM)	1 µg/mL (≈ 1.36 µM)	2 µg/mL (≈ 2.73 µM)	2 µg/mL (≈ 2.73 µM)	4 µg/mL (≈ 5.45 µM)	–	–	–	–	–	0.75 µg/mL	0.75 µg/mL	0.75 µg/mL	1 µg/mL	4 µg/mL	–
